Assay results from patent US5702923A, “Method of making a lactococcal bacteriocin” (Quest International Flavors & Food Ingredients Company, a …, priority 1992, dated 1997).

Experiments:
[1] = tested on: strain NRRL-B-18535; assay: Sensitivity of the producer strain to nisin; format: cell-based, Lactococcus lactis
Description: Inhibitory spectrum of LL-1. The plate assay system was used to evaluate the spectrum of bacteriocin activity. […] Strains of Streptococcus mutans, S. sanguis, S. faecalis and Listeria monocytogenes were not sensitive in this test. The strain NRRL-B-18535 was resistant to nisin.

[2] = tested on: Listeria monocytogenes; assay: Spot assay of filter sterilized supernatant (LL-1 broth) on indicator lawn; format: cell-based; settings: as crude filter sterilized broth or dried powder from the broth, not purified
Procedure: To produce the bacteriocin, 500 ml of MRS broth (Difco) was inoculated at 1% with an 8 hour old culture of LLA 1.0 grown in MRS broth (Difco, Detroit, Mich.) and was incubated statically at 32° C. for 24 hours. After 24 hours the cells were removed by centrifugation at 16,000×g for 20 minutes at 4° C. The supernatant was filtered through a 0.22 micron (pore size) filter (Millipore Corp. Bedford, Mass.). The supernatant was assayed for bacteriocin activity by spotting 5 microliters of this supernatant material onto various media overlaid with soft agar seeded with different indicator cells. These assay plates were incubated at 35° C. or 32° C., respectively. After 24 hours the plates were examined, clear zones associated with the spot were recorded as positive (growth inhibition) and negative (no growth inhibition).

[3] = tested on: L. monocytogenes 69; assay: Inhibition of Listeria, LL-1 compared with nisin; format: cell-based, Listeria monocytogenes; set-up: key: + = Inhibition; - = No inhibition; settings: 370 IU/ml, nisin purified from the broth
Description: This is shown by the following data in Table 5.

## nisin
[1]
  sensitivity of strain NRRL-B-18535 to nisin: resistant
[2]
  activity against Listeria monocytogenes, in words: not effective
[3]
  Inhibition of L. monocytogenes 69: -
